Reference: PMC11003488 (Journal of Enzyme Inhibition and Medicinal Chemistry, 2023)
Where two headings read alike, the source gives them in different places.

How the values were obtained:
A549/ATCC = test: NCI-60 SRB growth inhibition, one-dose and five-dose; assay type: cell-based; conditions: Homo sapiens; for GI50: A549; for inhibition at 10 µM: A549, read-out: percent growth inhibition
HOP-62 = test: as above; assay type: cell-based; conditions: Homo sapiens; for GI50: HOP-62; for inhibition at 10 µM: HOP-62, read-out: percent growth inhibition
HOP-92 = test: as above; assay type: cell-based; conditions: Homo sapiens; for GI50: HOP-92; for inhibition at 10 µM: HOP-92, read-out: percent growth inhibition
NCI-H460 = test: as above; assay type: cell-based; conditions: Homo sapiens; for GI50: NCI-H460; for inhibition at 10 µM: NCI-H460, read-out: percent growth inhibition
HCT-116 = test: as above; assay type: cell-based; conditions: Homo sapiens; for GI50: HCT-116, HCT-116, five-dose screening; for inhibition at 10 µM: HCT-116, read-out: percent growth inhibition
SW-620 = test: as above; assay type: cell-based; conditions: Homo sapiens; for GI50: SW-620; for inhibition at 10 µM: SW-620, read-out: percent growth inhibition
SF-295 = test: as above; assay type: cell-based; conditions: Homo sapiens; for GI50: SF-295; for inhibition at 10 µM: SF-295, read-out: percent growth inhibition
SF-539 = test: as above; assay type: cell-based; conditions: Homo sapiens; for GI50: SF-539; for inhibition at 10 µM: SF-539, read-out: percent growth inhibition
SK-MEL-5 = test: as above; assay type: cell-based; conditions: Homo sapiens; for GI50: SK-MEL-5; for inhibition at 10 µM: SK-MEL-5, read-out: percent growth inhibition
UACC-62 = test: as above; assay type: cell-based; conditions: Homo sapiens; for GI50: UACC-62; for inhibition at 10 µM: UACC-62, read-out: percent growth inhibition
OVCAR-5 = test: as above; assay type: cell-based; conditions: Homo sapiens; for GI50: OVCAR-5; for inhibition at 10 µM: OVCAR-5, read-out: percent growth inhibition
SK-OV-3 = test: as above; assay type: cell-based; conditions: Homo sapiens; for GI50: SK-OV-3; for inhibition at 10 µM: SK-OV-3, read-out: percent growth inhibition
TK-10 = test: as above; assay type: cell-based; conditions: Homo sapiens; for GI50: TK-10; for inhibition at 10 µM: TK-10, read-out: percent growth inhibition
UO-31 = test: as above; assay type: cell-based; conditions: Homo sapiens; for GI50: UO-31
DU-145 = test: as above; assay type: cell-based; conditions: Homo sapiens; for GI50: DU-145; for inhibition at 10 µM: DU-145, read-out: percent growth inhibition
MDA-MB-231/ATCC = test: as above; assay type: cell-based; conditions: Homo sapiens; for GI50: MDA-MB-231
BT-549 = test: as above; assay type: cell-based; conditions: Homo sapiens; for GI50: BT-549; for inhibition at 10 µM: BT-549, read-out: percent growth inhibition
[1] = tested on: NCI 60-cell line panel (full panel); test: NCI-60 SRB growth inhibition, full panel mean / MG-MID; assay type: cell-based, human; conditions: for GI50: Homo sapiens, 60 cell; for Full panel Mean GI %: mean over NCI-60 panel, single dose 10 µM
Leukaemia cell lines = test: NCI-60 SRB growth inhibition, subpanel; assay type: cell-based, human; conditions: for GI50: Homo sapiens
NSCLC cell lines = test: NCI-60 SRB growth inhibition, subpanel; assay type: cell-based, human; conditions: for GI50: Homo sapiens
Colon cancer cell lines = test: NCI-60 SRB growth inhibition, subpanel; assay type: cell-based, human; conditions: for GI50: Homo sapiens
CNS cancer cell lines = test: NCI-60 SRB growth inhibition, subpanel; assay type: cell-based, human; conditions: for GI50: Homo sapiens
Melanoma cell lines = test: NCI-60 SRB growth inhibition, subpanel; assay type: cell-based, human; conditions: for GI50: Homo sapiens
[2] = tested on: Ovarian cancer cell lines; test: NCI-60 SRB growth inhibition, subpanel; assay type: cell-based, human; conditions: for GI50: Homo sapiens
Renal cancer cell lines = test: NCI-60 SRB growth inhibition, subpanel; assay type: cell-based, human; conditions: for GI50: Homo sapiens
[3] = tested on: Prostate cancer cell lines; test: NCI-60 SRB growth inhibition, subpanel; assay type: cell-based, human; conditions: for GI50: Homo sapiens
Breast cancer cell lines = test: NCI-60 SRB growth inhibition, subpanel; assay type: cell-based, human; conditions: for GI50: Homo sapiens
[4] = Cytotoxicity towards normal fibroblasts, safety index; assay type: cell-based, human; conditions: human, WI-38 normal fibroblast cells
[5] = tested on: WI-38 normal human fibroblast cells; test: as above; assay type: cell-based; conditions: WI-38 versus cancer cell lines
Human VEGFR-2 = Human VEGFR-2 (Homo sapiens, UniProt P35968); test: VEGFR-2 inhibition assay; assay type: biochemical
Human VEGFR-2, sequence (P35968 20-1356): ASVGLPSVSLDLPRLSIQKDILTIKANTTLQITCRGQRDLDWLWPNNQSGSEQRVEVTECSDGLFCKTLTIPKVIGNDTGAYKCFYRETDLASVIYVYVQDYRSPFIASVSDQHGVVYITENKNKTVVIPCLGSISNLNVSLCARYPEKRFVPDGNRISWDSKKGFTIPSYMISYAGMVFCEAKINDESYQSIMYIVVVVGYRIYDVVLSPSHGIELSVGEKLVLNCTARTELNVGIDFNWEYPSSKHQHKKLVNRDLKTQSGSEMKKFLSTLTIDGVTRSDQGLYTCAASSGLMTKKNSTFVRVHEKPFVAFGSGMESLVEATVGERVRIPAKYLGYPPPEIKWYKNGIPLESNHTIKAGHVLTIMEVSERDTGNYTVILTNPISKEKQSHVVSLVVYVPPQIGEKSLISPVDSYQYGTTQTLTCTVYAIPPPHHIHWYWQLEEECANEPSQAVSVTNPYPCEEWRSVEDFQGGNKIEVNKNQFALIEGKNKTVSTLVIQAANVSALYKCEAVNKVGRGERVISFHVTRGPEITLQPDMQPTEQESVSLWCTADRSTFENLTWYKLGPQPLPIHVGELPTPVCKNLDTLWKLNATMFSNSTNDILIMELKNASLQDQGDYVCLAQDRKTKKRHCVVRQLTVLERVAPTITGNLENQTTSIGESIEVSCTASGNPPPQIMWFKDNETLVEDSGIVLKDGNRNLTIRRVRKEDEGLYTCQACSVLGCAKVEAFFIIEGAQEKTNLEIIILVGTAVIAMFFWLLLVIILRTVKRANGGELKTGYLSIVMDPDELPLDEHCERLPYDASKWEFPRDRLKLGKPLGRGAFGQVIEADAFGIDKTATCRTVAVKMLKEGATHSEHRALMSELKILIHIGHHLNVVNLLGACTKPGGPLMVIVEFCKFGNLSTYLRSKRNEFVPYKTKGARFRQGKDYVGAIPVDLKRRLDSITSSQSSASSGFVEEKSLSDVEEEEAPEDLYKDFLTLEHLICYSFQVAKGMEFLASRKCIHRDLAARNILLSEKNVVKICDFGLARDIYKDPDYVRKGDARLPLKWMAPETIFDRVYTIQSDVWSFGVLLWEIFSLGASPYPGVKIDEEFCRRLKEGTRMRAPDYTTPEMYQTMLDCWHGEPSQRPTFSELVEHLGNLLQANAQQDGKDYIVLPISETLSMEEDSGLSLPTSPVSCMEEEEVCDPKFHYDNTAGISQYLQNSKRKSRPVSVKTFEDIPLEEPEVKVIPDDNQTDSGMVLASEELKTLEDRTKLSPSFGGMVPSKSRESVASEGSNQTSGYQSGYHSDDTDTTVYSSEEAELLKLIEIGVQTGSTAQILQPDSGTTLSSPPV

SMILES: Cc1ccc(CNc2cccc(C(=O)/C=C/c3cccnc3)c2)cc1 [Compound 5a, (E)-1–(3-((4-methylbenzyl)amino)phenyl)-3-(pyridin-3-yl)prop-2-en-1-one]
- GI50 (A549/ATCC): 17.3 µM
- inhibition at 10 µM (A549/ATCC): 27.2%
- GI50 (HOP-62): 15.6 µM
- inhibition at 10 µM (HOP-62): 15.1%
- GI50 (HOP-92): 10.9 µM
- inhibition at 10 µM (HOP-92): 41.8%
- GI50 (NCI-H460): 12.9 µM
- inhibition at 10 µM (NCI-H460): 42%
- GI50 (HCT-116): 2070 nM
- inhibition at 10 µM (HCT-116): 189%
- GI50 (SW-620): 2030 nM
- inhibition at 10 µM (SW-620): 173%
- GI50 (SF-295): 14 µM
- inhibition at 10 µM (SF-295): 58.9%
- GI50 (SF-539): 15.6 µM
- inhibition at 10 µM (SF-539): 152%
- GI50 (SK-MEL-5): 8.96 µM
- inhibition at 10 µM (SK-MEL-5): 74.9%
- GI50 (UACC-62): 11.1 µM
- inhibition at 10 µM (UACC-62): 58.4%
- GI50 (OVCAR-5): 15.6 µM
- inhibition at 10 µM (OVCAR-5): 52.2%
- GI50 (SK-OV-3): 16.1 µM
- inhibition at 10 µM (SK-OV-3): 60.2%
- GI50 (TK-10): 14.4 µM
- inhibition at 10 µM (TK-10): 18.9%
- GI50 (UO-31): 11.7 µM
- inhibition at 10 µM (UO-31; UO-31, read-out: percent growth inhibition): 47.5%
- GI50 (DU-145): 13.3 µM
- inhibition at 10 µM (DU-145): 53.9%
- GI50 (MDA-MB-231/ATCC): 11.3 µM
- inhibition at 10 µM (MDA-MB-231/ATCC; MDA-MB-231, read-out: percent growth inhibition): 110%
- GI50 (BT-549): 10.4 µM
- inhibition at 10 µM (BT-549): 111%
- GI50 ([1]; read-out: Full panel GI50 mean): 10.8 µM
- Full panel Mean GI % [1]: 82.76%
- GI50 (Leukaemia cell lines; read-out: GI50 MG-MID): 3340 nM
- GI50 (NSCLC cell lines; read-out: GI50 MG-MID): 13.7 µM
- GI50 (Colon cancer cell lines; read-out: GI50 MG-MID): 8.84 µM
- GI50 (CNS cancer cell lines; read-out: GI50 MG-MID): 13.2 µM
- GI50 (Melanoma cell lines; read-out: GI50 MG-MID): 10.6 µM
- GI50 ([2]; read-out: GI50 MG-MID): 11.4 µM
- GI50 (Renal cancer cell lines; read-out: GI50 MG-MID): 13.3 µM
- GI50 ([3]; read-out: GI50 MG-MID): 13.8 µM
- GI50 (Breast cancer cell lines; read-out: GI50 MG-MID): 9210 nM
- GI50 at 48 h [4]: > 100 µM
- Safety index [5]: >1
- IC50 (Human VEGFR-2): 2000 ± 23 nM

SMILES: CC(=O)Nc1ccc(CNc2cccc(C(=O)/C=C/c3cccnc3)c2)cc1 [Compound 5b, (E)-N-(4-(((3–(3-(pyridin-3-yl)acryloyl)phenyl)amino)methyl)phenyl)acetamide]
- GI50 (A549/ATCC): 14.9 µM
- inhibition at 10 µM (A549/ATCC): 27.8%
- GI50 (HOP-62): 12.7 µM
- inhibition at 10 µM (HOP-62): 74%
- GI50 (HOP-92): 8.47 µM
- inhibition at 10 µM (HOP-92): 68.5%
- GI50 (NCI-H460): 2.87 µM
- inhibition at 10 µM (NCI-H460): 107%
- GI50 (HCT-116): 1800 nM
- inhibition at 10 µM (HCT-116): 196%
- GI50 (SW-620): 1830 nM
- inhibition at 10 µM (SW-620): 169%
- GI50 (SF-295): 10.3 µM
- inhibition at 10 µM (SF-295): 91.9%
- GI50 (SF-539): 6.35 µM
- inhibition at 10 µM (SF-539): 170%
- GI50 (SK-MEL-5): 6.51 µM
- inhibition at 10 µM (SK-MEL-5): 174%
- GI50 (UACC-62): 5.03 µM
- inhibition at 10 µM (UACC-62): 162%
- GI50 (OVCAR-5): 3.44 µM
- inhibition at 10 µM (OVCAR-5): 103%
- GI50 (SK-OV-3): 13.9 µM
- inhibition at 10 µM (SK-OV-3): 15.2%
- GI50 (TK-10): 2.53 µM
- inhibition at 10 µM (TK-10): 85.3%
- GI50 (UO-31): 3.04 µM
- GI50 (DU-145): 5.15 µM
- inhibition at 10 µM (DU-145): 92.2%
- GI50 (MDA-MB-231/ATCC): 2.16 µM
- GI50 (BT-549): 2.78 µM
- inhibition at 10 µM (BT-549): 174%
- GI50 ([1]; read-out: Full panel GI50 mean): 4.65 µM
- GI50 ([1]; read-out: Full panel MG-MID GI50): 4.65 µM
- Full panel Mean GI % [1]: 123.16%
- GI50 (Leukaemia cell lines; read-out: GI50 MG-MID): 2490 nM
- GI50 (Leukaemia cell lines; read-out: MG-MID GI50): 2490 nM
- SI (Selectivity Index) (Leukaemia cell lines; full panel MG-MID / leukaemia subpanel MG-MID): 1.87
- GI50 (NSCLC cell lines; read-out: GI50 MG-MID): 7.24 µM
- GI50 (NSCLC cell lines; read-out: MG-MID GI50): 7.24 µM
- SI (Selectivity Index) (NSCLC cell lines; full panel MG-MID / NSCLC subpanel MG-MID): 0.64
- GI50 (Colon cancer cell lines; read-out: GI50 MG-MID): 3.26 µM
- GI50 (Colon cancer cell lines; read-out: MG-MID GI50): 3.26 µM
- SI (Selectivity Index) (Colon cancer cell lines; full panel MG-MID / Colon Cancer subpanel MG-MID): 1.43
- GI50 (CNS cancer cell lines; read-out: GI50 MG-MID): 7.46 µM
- GI50 (CNS cancer cell lines; read-out: MG-MID GI50): 7.46 µM
- SI (Selectivity Index) (CNS cancer cell lines; full panel MG-MID / CNS Cancer subpanel MG-MID): 0.62
- GI50 (Melanoma cell lines; read-out: GI50 MG-MID): 3.99 µM
- GI50 (Melanoma cell lines; read-out: MG-MID GI50): 3.99 µM
- SI (Selectivity Index) (Melanoma cell lines; full panel MG-MID / Melanoma subpanel MG-MID): 1.12
- GI50 ([2]; read-out: GI50 MG-MID): 5.71 µM
- GI50 ([2]; read-out: MG-MID GI50): 5.71 µM
- SI (Selectivity Index) ([2]; full panel MG-MID / Ovarian Cancer subpanel MG-MID): 0.81
- GI50 (Renal cancer cell lines; read-out: GI50 MG-MID): 5.2 µM
- GI50 (Renal cancer cell lines; read-out: MG-MID GI50): 5.2 µM
- SI (Selectivity Index) (Renal cancer cell lines; full panel MG-MID / Renal Cancer subpanel MG-MID): 0.89
- GI50 ([3]; read-out: GI50 MG-MID): 4.1 µM
- GI50 ([3]; read-out: MG-MID GI50): 4.1 µM
- SI (Selectivity Index) ([3]; full panel MG-MID / Prostatic Cancer subpanel MG-MID): 1.13
- GI50 (Breast cancer cell lines; read-out: GI50 MG-MID): 2450 nM
- GI50 (Breast cancer cell lines; read-out: MG-MID GI50): 2450 nM
- SI (Selectivity Index) (Breast cancer cell lines; full panel MG-MID / Breast Cancer subpanel MG-MID): 1.90
- GI50 at 48 h [4]: > 100 µM
- Safety index [5]: >1
- IC50 (Human VEGFR-2): 1770 ± 21 nM

SMILES: CC(=O)Nc1ccc(/C=C/C(=O)c2cccc(NCc3ccc4oc(=O)ccc4c3)c2)cc1 [Compound 5k, (E)-N-(4–(3-oxo-3–(3-(((2-oxo-2H-chromen-6-yl)methyl)amino)phenyl)prop-1-en-1-yl)phenyl)acetamide]
- inhibition at 10 µM (A549/ATCC): 21.5%
- inhibition at 10 µM (HOP-62): 10.8%
- inhibition at 10 µM (HOP-92): 3.27%
- inhibition at 10 µM (NCI-H460): 22.7%
- inhibition at 10 µM (HCT-116): 78.8%
- inhibition at 10 µM (SW-620): 52.2%
- inhibition at 10 µM (SF-295): 36.8%
- inhibition at 10 µM (SF-539): 19%
- inhibition at 10 µM (SK-MEL-5): 76.3%
- inhibition at 10 µM (UACC-62): 67.5%
- inhibition at 10 µM (OVCAR-5): 16.8%
- inhibition at 10 µM (SK-OV-3): 3.88%
- inhibition at 10 µM (TK-10): 25.8%
- inhibition at 10 µM (DU-145): 18.3%
- inhibition at 10 µM (BT-549): 55.8%
- Full panel Mean GI % [1]: 39.00%
